Experimental data as given in patent publication US20190290650A1, “FORMULATIONS/COMPOSITIONS COMPRISING A BTK INHIBITOR” (Janssen Pharmaceutic NV, priority 2016, published 2019).
Where two headings read alike, the source gives them in different places.

Assays:
[1] = general statement, no test described; cited from earlier work
[2] = test system: OCI-Ly10; test: Growth inhibition of OCI-Ly10 (ABC-DLBCL) cells; type: cell-based; details: Homo sapiens
Excerpt: See U.S. Pat. No. 7,711,492 and Staudt et al., Nature, Vol. 463, Jan. 7, 2010, pp. 88-92, the contents of which are incorporated by reference in their entirety.

In the case of `C=CC(=O)N1CCC[C@@H](n2nc(-c3ccc(Oc4ccccc4)cc3)c3c(N)ncnc32)C1` [Compound 1, 1-((R)-3-(4-amino-3-(4-phenoxyphenyl)-1H-pyrazolo[3,4-d]pyrimidin-1-yl)piperidin-1-yl)prop-2-en-1-one], the Water solubility [1] is listed as “very low water solubility”, the EC50 ([2]; continuous exposure, read-out: EC50 continuous exposure (growth of OCI-Ly10)) is listed as 0.01 µM and the EC50 ([2]; read-out: EC50 1 hour pulse (growth of OCI-Ly10), 1 hour pulse) is listed as 0.05 µM.
